Key:
Nitric oxide synthase 1 = Nitric oxide synthase 1 (Rattus norvegicus, UniProt P29476); type: tissue-based, Cerebellum; further: in other assays of this panel Not Active means under 50% inhibition at 10 µM
[1] = DRUGMATRIX: Imidazoline I2, Central radioligand binding (ligand: [3H] Idazoxan); type: cell membranes, Rattus norvegicus, Wistar, Cerebral cortex, Membrane; details: Not Active = under 50% inhibition at 10 µM
[2] = molecular target: Receptor tyrosine-protein kinase erbB-2 (Homo sapiens, UniProt P04626); assay: biochemical; type: cell-based, Insect cells; details: insect cells;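 further: inhibition of HER2 kinase enzyme activity, measured with Poly(Glu:Tyr) as the phosphorylation substrate; in other assays of this panel Not Active means under 50% inhibition at 10 µM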
Chain of Receptor tyrosine-protein kinase erbB-2 (P04626 whole entry): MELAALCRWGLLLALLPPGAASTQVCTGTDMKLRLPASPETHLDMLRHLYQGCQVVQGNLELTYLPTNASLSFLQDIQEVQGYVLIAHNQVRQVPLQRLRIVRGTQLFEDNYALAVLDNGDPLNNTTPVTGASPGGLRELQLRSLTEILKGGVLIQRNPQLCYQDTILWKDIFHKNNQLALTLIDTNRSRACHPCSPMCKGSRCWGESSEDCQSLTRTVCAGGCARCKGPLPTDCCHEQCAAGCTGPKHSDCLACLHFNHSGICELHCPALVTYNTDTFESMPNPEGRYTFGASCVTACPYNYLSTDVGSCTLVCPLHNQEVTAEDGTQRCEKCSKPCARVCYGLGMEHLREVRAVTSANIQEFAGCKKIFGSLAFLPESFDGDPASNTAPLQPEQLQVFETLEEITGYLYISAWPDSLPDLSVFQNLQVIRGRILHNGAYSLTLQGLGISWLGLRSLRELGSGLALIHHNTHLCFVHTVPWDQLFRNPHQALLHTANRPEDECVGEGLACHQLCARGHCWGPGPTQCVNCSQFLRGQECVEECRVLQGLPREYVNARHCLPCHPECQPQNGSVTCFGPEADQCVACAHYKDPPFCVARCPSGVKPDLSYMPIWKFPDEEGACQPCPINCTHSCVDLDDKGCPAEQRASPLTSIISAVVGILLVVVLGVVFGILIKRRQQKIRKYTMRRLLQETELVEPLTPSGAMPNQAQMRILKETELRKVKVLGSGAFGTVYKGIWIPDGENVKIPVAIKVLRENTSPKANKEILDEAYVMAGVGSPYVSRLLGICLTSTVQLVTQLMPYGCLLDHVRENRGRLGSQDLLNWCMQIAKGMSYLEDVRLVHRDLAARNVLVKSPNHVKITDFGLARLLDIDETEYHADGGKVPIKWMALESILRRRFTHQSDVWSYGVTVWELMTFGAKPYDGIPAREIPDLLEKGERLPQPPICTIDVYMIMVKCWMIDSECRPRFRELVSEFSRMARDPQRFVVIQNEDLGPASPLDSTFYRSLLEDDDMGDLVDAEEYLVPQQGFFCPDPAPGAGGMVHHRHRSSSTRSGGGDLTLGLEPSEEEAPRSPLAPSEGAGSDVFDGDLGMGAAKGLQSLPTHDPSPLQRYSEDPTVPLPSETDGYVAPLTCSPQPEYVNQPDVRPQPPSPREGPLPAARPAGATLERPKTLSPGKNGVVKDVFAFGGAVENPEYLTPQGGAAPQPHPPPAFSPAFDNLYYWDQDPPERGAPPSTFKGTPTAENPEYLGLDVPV

[3] = molecular target: 5-hydroxytryptamine receptor 6 (Homo sapiens, UniProt P50406); type: cell membranes, HeLa, Membrane; details: for Ki: read-out: Ki; on all read-outs here: in other assays of this panel Not Active means under 50% inhibition at 10 µM
Chain of 5-hydroxytryptamine receptor 6 (P50406 whole entry): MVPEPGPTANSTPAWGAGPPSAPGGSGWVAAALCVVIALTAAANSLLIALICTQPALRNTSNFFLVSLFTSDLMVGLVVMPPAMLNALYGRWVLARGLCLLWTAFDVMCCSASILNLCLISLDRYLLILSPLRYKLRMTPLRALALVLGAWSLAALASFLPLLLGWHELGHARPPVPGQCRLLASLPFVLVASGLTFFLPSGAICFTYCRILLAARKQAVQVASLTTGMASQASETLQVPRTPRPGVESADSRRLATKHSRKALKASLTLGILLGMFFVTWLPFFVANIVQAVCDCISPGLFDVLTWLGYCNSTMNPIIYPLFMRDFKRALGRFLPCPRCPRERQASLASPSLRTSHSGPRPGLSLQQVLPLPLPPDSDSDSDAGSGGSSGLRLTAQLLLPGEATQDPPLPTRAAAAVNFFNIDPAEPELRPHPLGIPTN

B2 bradykinin receptor = molecular target: T1, B2 bradykinin receptor (Homo sapiens, UniProt P30411); type: cell membranes, Membrane; details: chem-1; further: in other assays of this panel Not Active means under 50% inhibition at 10 µM
T1 sequence (P30411 whole entry): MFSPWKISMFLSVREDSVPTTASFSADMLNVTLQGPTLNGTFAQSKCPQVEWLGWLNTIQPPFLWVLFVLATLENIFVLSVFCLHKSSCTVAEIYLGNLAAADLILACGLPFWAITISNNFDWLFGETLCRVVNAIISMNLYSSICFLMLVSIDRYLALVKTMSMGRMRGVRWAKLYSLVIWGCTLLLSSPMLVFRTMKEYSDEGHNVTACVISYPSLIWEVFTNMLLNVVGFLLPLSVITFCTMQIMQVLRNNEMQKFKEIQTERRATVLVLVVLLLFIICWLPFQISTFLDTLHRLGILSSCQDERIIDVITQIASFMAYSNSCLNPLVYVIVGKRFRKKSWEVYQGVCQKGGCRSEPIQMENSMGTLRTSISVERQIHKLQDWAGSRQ

[4] = DRUGMATRIX: Potassium Channel [KATP] radioligand binding (ligand: [3H] Glyburide); type: cell membranes, Membrane; details: hit-t15; Not Active = under 50% inhibition at 10 µM
[5] = molecular target: T2, Cysteinyl leukotriene receptor 1 (Homo sapiens, UniProt Q9Y271); type: cell membranes, CHO-K1, Membrane; further: in other assays of this panel Not Active means under 50% inhibition at 10 µM
T2 sequence (Q9Y271 whole entry): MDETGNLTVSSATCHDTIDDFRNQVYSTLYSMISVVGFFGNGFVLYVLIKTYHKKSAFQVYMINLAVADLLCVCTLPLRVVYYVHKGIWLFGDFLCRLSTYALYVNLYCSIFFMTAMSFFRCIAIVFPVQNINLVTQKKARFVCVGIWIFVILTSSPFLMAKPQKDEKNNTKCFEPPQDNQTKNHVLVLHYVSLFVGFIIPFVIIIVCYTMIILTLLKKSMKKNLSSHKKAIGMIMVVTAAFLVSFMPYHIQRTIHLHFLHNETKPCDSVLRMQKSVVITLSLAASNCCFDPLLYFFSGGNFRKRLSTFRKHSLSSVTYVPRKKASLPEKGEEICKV

[6] = DRUGMATRIX: Atrial Natriuretic Factor (ANF) radioligand binding (ligand: [125I] ANF (rat)); type: cell membranes, Cavia porcellus, Dunkin-Hartley, Adrenal gland, Membrane; details: Not Active = under 50% inhibition at 10 µM
[7] = molecular target: 5-hydroxytryptamine receptor 1B (Rattus norvegicus, UniProt P28564); type: cell membranes, Wistar, Cerebral cortex, Membrane; details: for Ki: read-out: Ki
Chain of 5-hydroxytryptamine receptor 1B (P28564 whole entry): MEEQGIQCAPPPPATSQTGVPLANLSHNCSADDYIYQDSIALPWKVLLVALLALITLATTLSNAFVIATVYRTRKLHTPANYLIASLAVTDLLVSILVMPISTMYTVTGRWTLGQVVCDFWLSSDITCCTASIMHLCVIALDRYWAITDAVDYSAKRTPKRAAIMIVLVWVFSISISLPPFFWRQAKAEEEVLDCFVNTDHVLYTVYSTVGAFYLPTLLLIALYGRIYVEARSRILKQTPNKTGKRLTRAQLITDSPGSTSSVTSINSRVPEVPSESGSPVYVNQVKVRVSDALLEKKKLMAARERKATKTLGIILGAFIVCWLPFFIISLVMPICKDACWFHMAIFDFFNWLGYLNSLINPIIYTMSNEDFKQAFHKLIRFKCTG

Glycine receptor = Glycine receptor (Rattus norvegicus, UniProt P22771+P24524+P07727+P20781); type: cell membranes, Wistar, Spinal cord, Membrane; further: in other assays of this panel Not Active means under 50% inhibition at 10 µM

Chain of Nitric oxide synthase 1 (P29476 whole entry): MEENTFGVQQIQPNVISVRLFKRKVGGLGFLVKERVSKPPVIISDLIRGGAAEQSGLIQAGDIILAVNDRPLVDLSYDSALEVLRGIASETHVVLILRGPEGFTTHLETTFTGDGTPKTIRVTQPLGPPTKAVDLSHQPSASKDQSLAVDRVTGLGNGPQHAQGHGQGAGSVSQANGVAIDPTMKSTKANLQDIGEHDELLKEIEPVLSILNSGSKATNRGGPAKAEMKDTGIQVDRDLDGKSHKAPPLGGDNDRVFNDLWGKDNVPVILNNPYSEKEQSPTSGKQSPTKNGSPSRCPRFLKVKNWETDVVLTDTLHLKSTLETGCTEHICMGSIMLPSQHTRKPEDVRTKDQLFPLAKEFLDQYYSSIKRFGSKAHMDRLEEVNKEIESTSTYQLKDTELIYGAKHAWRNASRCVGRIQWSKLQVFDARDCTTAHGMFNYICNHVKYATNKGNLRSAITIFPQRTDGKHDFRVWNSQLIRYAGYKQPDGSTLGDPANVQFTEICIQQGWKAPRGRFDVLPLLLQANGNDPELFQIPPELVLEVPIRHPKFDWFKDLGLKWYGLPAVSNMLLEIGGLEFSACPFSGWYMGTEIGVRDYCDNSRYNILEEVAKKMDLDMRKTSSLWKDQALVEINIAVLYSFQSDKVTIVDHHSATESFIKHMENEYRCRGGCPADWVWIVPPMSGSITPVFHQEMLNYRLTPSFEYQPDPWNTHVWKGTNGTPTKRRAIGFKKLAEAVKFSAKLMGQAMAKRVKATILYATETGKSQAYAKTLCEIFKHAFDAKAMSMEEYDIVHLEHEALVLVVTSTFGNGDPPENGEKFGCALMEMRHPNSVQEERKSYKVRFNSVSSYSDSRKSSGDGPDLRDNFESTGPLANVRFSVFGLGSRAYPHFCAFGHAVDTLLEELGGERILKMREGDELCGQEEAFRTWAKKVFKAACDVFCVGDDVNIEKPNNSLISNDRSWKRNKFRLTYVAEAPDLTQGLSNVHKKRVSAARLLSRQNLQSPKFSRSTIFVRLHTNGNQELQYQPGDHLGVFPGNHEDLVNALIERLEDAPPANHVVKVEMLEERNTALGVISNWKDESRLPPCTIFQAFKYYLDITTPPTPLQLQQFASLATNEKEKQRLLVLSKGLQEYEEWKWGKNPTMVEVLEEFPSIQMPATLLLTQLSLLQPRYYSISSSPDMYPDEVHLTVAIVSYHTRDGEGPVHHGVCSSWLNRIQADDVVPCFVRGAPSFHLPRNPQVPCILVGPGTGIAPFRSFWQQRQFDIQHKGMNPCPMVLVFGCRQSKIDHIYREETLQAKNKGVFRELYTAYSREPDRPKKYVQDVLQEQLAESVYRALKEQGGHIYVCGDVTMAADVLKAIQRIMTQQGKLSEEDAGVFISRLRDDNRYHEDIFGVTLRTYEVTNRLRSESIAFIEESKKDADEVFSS

SMILES	IC50 (Nitric oxide synthase 1)	IC50 [1]	Ki [1]	IC50 [2]	IC50 ([3]; hela)	IC50 (B2 bradykinin receptor)	IC50 [4]	Ki [4]	IC50 ([5]; cho-k1)	IC50 [6]	Ki [6]	IC50 [7]	IC50 (Glycine receptor)	IC50 ([3]; read-out: IC50)	Ki [3]	IC50 ([7]; read-out: IC50)	Ki [7]	IC50 ([5]; read-out: IC50)	Ki ([5]; read-out: Ki)
CC1=C(CC(=O)O)c2cc(F)ccc2/C1=C\c1ccc([S+](C)[O-])cc1 (stereo unspecified)	Not Active	Not Active	Not Active	Not Active	Not Active	Not Active	Not Active	Not Active	Not Active	Not Active	Not Active	Not Active	Not Active						
N[C@H](CSC(=S)NCc1ccccc1)C(=O)O	Not Active	Not Active	Not Active	Not Active	Not Active	Not Active	Not Active	Not Active	Not Active	Not Active	Not Active	Not Active	Not Active						
CC(=O)N[C@@H]1[C@H](Oc2c3cc4cc2Oc2ccc(cc2Cl)[C@@H](O[C@@H]2O[C@@H](CO)[C@@H](O)[C@H](O)[C@@H]2NC(C)=O)[C@@H]2NC(=O)[C@H](NC(=O)[C@@H]4NC(=O)[C@H]4NC(=O)[C@@H](Cc5ccc(c(Cl)c5)O3)NC(=O)[C@H](N)c3ccc(O)c(c3)Oc3cc(O)cc4c3)c3ccc(O)c(c3)-c3c(O[C@H]4O[C@H](CO)[C@@H](O)[C@@H](O)[C@@H]4O)cc(O)cc3[C@@H](C(=O)O)NC2=O)O[C@@H](CO)[C@@H](O)[C@@H]1O	Not Active	Not Active	Not Active	Not Active	Not Active	Not Active	Not Active	Not Active	Not Active	Not Active	Not Active	Not Active	Not Active						
Clc1ccc2c(c1)C(N1CCNCC1)=Nc1ccccc1O2 [AMOXAPINE]	Not Active			Not Active		Not Active			Not Active			Not Active	Not Active						
COc1cc2c(c(OC)c1OC)-c1ccc(OC)c(=O)cc1[C@@H](NC(C)=O)CC2 [COLCHICINE]	Not Active			Not Active	Not Active	Not Active			Not Active			Not Active	Not Active						
CN1CCC(=C2c3ccccc3C=Cc3ccccc32)CC1 [CYPROHEPTADINE]	Not Active			Not Active		Not Active			Not Active				Not Active	281 nM	130 nM	2780 nM	1260 nM		
CC/C(=C(/CC)c1ccc(O)cc1)c1ccc(O)cc1 [DIETHYLSTILBESTROL]	Not Active			Not Active		Not Active						Not Active	Not Active	12900 nM	5990 nM			17700 nM	8870 nM
CC(=O)N1CCN(c2ccc(OCC3COC(Cn4ccnc4)(c4ccc(Cl)cc4Cl)O3)cc2)CC1 (stereo unspecified) [KETOCONAZOLE]	Not Active	Not Active	Not Active	Not Active	Not Active	Not Active			Not Active	Not Active	Not Active		Not Active			13500 nM	6150 nM		
C=CCN1CC[C@]23c4c5ccc(O)c4O[C@H]2C(=O)CC[C@@]3(O)[C@H]1C5 [NALOXONE]	Not Active			Not Active	Not Active	Not Active			Not Active			Not Active	Not Active						
COCCOC(=O)C1=C(C)NC(C)=C(C(=O)OC(C)C)C1c1cccc([N+](=O)[O-])c1 (stereo unspecified) [NIMODIPINE]	Not Active	Not Active	Not Active	Not Active	Not Active	Not Active	Not Active	Not Active	Not Active	Not Active	Not Active	Not Active	Not Active						
CC(C)NCC(O)COc1cccc2ccccc12 (stereo unspecified) [PROPRANOLOL]	Not Active			Not Active		Not Active			Not Active			Not Active	Not Active	3060 nM	1420 nM				
COCCCOc1ccnc(C[S+]([O-])c2nc3ccccc3[nH]2)c1C (stereo unspecified) [RABEPRAZOLE]	Not Active	Not Active	Not Active	Not Active	Not Active	Not Active	Not Active	Not Active	Not Active	Not Active	Not Active	Not Active	Not Active						
O=C(c1ccc(OCCN2CCCCC2)cc1)c1c(-c2ccc(O)cc2)sc2cc(O)ccc12 [RALOXIFENE]	Not Active	Not Active	Not Active	Not Active	Not Active	Not Active	Not Active	Not Active	Not Active	Not Active	Not Active		Not Active			1860 nM	846 nM		
CNC(=C[N+](=O)[O-])NCCSCc1ccc(CN(C)C)o1 [RANITIDINE]	Not Active	Not Active	Not Active	Not Active	Not Active	Not Active	Not Active	Not Active	Not Active	Not Active	Not Active	Not Active	Not Active						
CO[C@H]1/C=C/O[C@@]2(C)Oc3c(C)c(O)c4c(c3C2=O)C2=NC3(CCN(CC(C)C)CC3)NC2=C(NC(=O)/C(C)=C\C=C\[C@H](C)[C@H](O)[C@@H](C)[C@@H](O)[C@@H](C)[C@H](OC(C)=O)[C@@H]1C)C4=O [RIFABUTIN]	Not Active	Not Active	Not Active	Not Active	Not Active	Not Active	Not Active	Not Active	Not Active	Not Active	Not Active	Not Active	Not Active						
CC(C)c1nc(CN(C)C(=O)N[C@H](C(=O)N[C@@H](Cc2ccccc2)C[C@H](O)[C@H](Cc2ccccc2)NC(=O)OCc2cncs2)C(C)C)cs1 [RITONAVIR]	Not Active	Not Active	Not Active	Not Active	Not Active	Not Active	Not Active	Not Active	Not Active	Not Active	Not Active	Not Active	Not Active						
CC(C)CC(N(C)C)C1(c2ccc(Cl)cc2)CCC1 (stereo unspecified) [SIBUTRAMINE]	Not Active	Not Active	Not Active	Not Active	Not Active	Not Active	Not Active	Not Active	Not Active	Not Active	Not Active	Not Active	Not Active						
[H]/N=C(/N)N[C@H]1[C@H](O)[C@@H](O)[C@H](O[C@@H]2O[C@@H](C)[C@](O)(C=O)[C@H]2O[C@@H]2O[C@@H](CO)[C@H](O)[C@@H](O)[C@@H]2NC)[C@@H](N/C(N)=N\[H])[C@@H]1O [STREPTOMYCIN]	Not Active	Not Active	Not Active	Not Active	Not Active	Not Active	Not Active	Not Active	Not Active	Not Active	Not Active	Not Active	Not Active						
COc1cc(NS(=O)(=O)c2ccc(N)cc2)nc(OC)n1 [SULFADIMETHOXINE]	Not Active	Not Active	Not Active	Not Active		Not Active	Not Active	Not Active	Not Active	Not Active	Not Active	Not Active	Not Active	1340 nM	622 nM				
CC(C)(C)c1ccc(C(O)CCCN2CCC(C(O)(c3ccccc3)c3ccccc3)CC2)cc1 (stereo unspecified) [TERFENADINE]	Not Active	Not Active	Not Active	Not Active		Not Active			Not Active	Not Active	Not Active	Not Active	Not Active						
